Source: patent US10105367B2, “Therapeutic thiophene-, furan-, and pyridine-fused azolopyrimidin-5-(6h)-ones” (Dart Neuroscience (Cayman) Ltd., priority 2012, dated 2018)

What follows are compounds tested against human PDE1B (Homo sapiens (Human), UniProt Q01064) (assay: PDE1B inhibitory assay (IMAP TR-FRET)). Conditions: PDE1B pIC50, negative log of half-maximal molar inhibitory concentration; 200 nM FAM-cAMP, Calmodulin, CaCl2.

SMILES	IC50
COc1ccc(Cn2c(=O)n3ncnc3c3cc(CN(C)C)sc32)cc1 [Example 30]	100 to 1000 nM
CC(C)CCc1cc2c(s1)n(Cc1ccc(Cl)cc1)c(=O)n1ncnc21 [Example 23]	100 to 1000 nM
COc1ccc(Cn2c(=O)n3ncnc3c3ccc(CN4C[C@@H](C)O[C@@H](C)C4)nc32)cc1 [Example 257]	100 to 1000 nM
COc1ccc(Cn2c(=O)n3ncnc3c3cc(N4C[C@@H](C)O[C@@H](C)C4)cnc32)cc1 [Example 201]	100 to 1000 nM
COc1ccc(Cn2c(=O)n3ncnc3c3cc(CN4CCOC(C)(C)C4)cnc32)cc1 [Example 223]	100 to 1000 nM
CC(C)CCc1cc2c(s1)n(Cc1cccc(Cl)c1)c(=O)n1ncnc21 [Example 20]	1000 to 10000 nM
COc1ccc(Cn2c(=O)n3ncnc3c3c4c(sc32)CN(CC2CCNCC2)CC4)cc1 [Example 182]	100 to 1000 nM
COc1ccc(Cn2c(=O)n3ncnc3c3c4c(sc32)NCCC4)cc1OC [Example 100]	1000 to 10000 nM
COc1ccc(Cn2c(=O)n3ncnc3c3c4c(sc32)CN(C2CS(=O)(=O)C2)CC4)cc1 [Example 124]	100 to 1000 nM
COc1ccc(Cn2c(=O)n3ncnc3c3c(C)csc32)cc1 [Example 28]	100 to 1000 nM
COc1ccc(Cn2c(=O)n3ncnc3c3cc(CN4CC5CC4CO5)cnc32)cc1 (centres unmarked) [Example 218, 9-(2-Oxa-5-azabicyclo[2.2.1]heptan-5-ylmethyl)-6-(4-methoxybenzyl)pyrido[3,2-e][1,2,4]triazolo[1,5-c]pyrimidin-5(6H)-one]	100 to 1000 nM
C[C@@H]1CN(Cc2cnc3c(c2)c2ncnn2c(=O)n3Cc2ccc(OC(F)F)cc2F)C[C@H](C)O1 [Example 290]	100 to 1000 nM
COc1ccc(Cn2c(=O)n3ncnc3c3cc(CN4CCOCC4C)cnc32)cc1 (centres unmarked) [Example 230]	100 to 1000 nM
COc1ccc(Cn2c(=O)n3ncnc3c3c4c(sc32)N(Cc2cccc(Cl)c2)CCC4)cc1OC [Example 155]	1000 to 10000 nM
COc1ccc(Cn2c(=O)n3ncnc3c3cc(CN4CCNCC4)cnc32)cc1 [Example 249, 6-(4-Methoxybenzyl)-9-(piperazin-1-ylmethyl)pyrido[3,2-e][1,2,4]triazolo[1,5-c]pyrimidin-5(6H)-one]	1000 to 10000 nM

Same assay, conditions: negative log of half-maximal molar inhibitory concentration; 200 nM FAM-cAMP, Calmodulin, CaCl2

SMILES	PDE1B pIC50
COc1ccc(Cn2c(=O)n3ncnc3c3cc(C(O)CN4C[C@@H](C)O[C@@H](C)C4)cnc32)cc1 (some centres unmarked) [Example 268]	>7
COc1ccc(Cn2c(=O)n3ncnc3c3c(C)c(CN4CCNC(=O)C4)sc32)cc1 [Example 53]	>7
COc1ccc(Cn2c(=O)n3ncnc3c3c(C)c(CN4CCN(C)C(C)C4)sc32)cc1 (centres unmarked) [Example 73]	>7
COc1ccc(Cn2c(=O)n3ncnc3c3c4c(sc32)CN(Cc2ccc(F)cc2)CC4)cc1 [Example 127]	>7
COc1ccc(Cn2c(=O)n3ncnc3c3cc(CN4C[C@@H](C)O[C@@H](C)C4)cnc32)c(F)c1 [Example 277]	>7
COc1ccc(Cn2c(=O)n3ncnc3c3c(C)c(CN(C)CC4CCCO4)sc32)cc1 (centres unmarked) [Example 54]	>7
COc1ccc(Cn2c(=O)n3ncnc3c3c4c(sc32)CN(Cc2nccn2C)CCC4)cc1 [Example 144]	>7
COc1ccc(Cn2c(=O)n3ncnc3c3c4c(sc32)CN(CC2CCOC2)CC4)cc1 (centres unmarked) [Example 113]	>7
C[C@@H]1CN(Cc2cnc3c(c2)c2ncnn2c(=O)n3Cc2ccc3cnn(C)c3c2)C[C@H](C)O1 [Example 288]	<5
COc1ccc(Cn2c(=O)n3ncnc3c3c4c(sc32)CN(CC2CCC(=O)O2)CC4)cc1 (centres unmarked) [Example 126]	>7
COc1ccc(Cn2c(=O)n3ncnc3c3c4c(sc32)CN(CCCS(C)(=O)=O)CC4)cc1 [Example 118]	>7
O=C(C1CC1)N1CCc2c(sc3c2c2ncnn2c(=O)n3Cc2ccc(Cl)cc2F)C1 [Example 164]	>7
COc1ccc(Cn2c(=O)n3ncnc3c3c(C)c(CN4Cc5ccccc5C4)sc32)cc1 [Example 56]	>7
COc1ccc(Cn2c(=O)n3ncnc3c3c4c(sc32)CN(Cc2nccn2C)CC4)cc1 [Example 122]	>7
